pEC50: −log10 of the molar value. Read-outs that look alike come from different tables or passages of the source.

For one data set, the system named is HL-60 human leukaemia. The data set can be described thus: Inhibition of tumor cell proliferation at 10 μM, Model A: MTT method. Type of data set: cell-based. To be noted: HL-60, MTT method, read-out: Model A Inhibitory rate (%). The text has this: (§1) The evaluation of the compounds according to the present invention on the inhibition rate of the proliferation of four different tumor cells, using the routine method for anti-tumor activity tests in the pharmaceutical filed, for example the method described in the following literature: (J. Immuno/Method, 1983, 65, 55).

Data set [1] relates to BGC-823 human gastric cancer. As to the kind of experiment: Inhibition of tumor cell proliferation at 10 μM, Model B: SRB method. Format: cell-based. To be noted: BGC-823, SRB method, read-out: Model B Inhibitory rate (%).
Description: as §1
On the technique in general: Sulforhodamine B stains cellular protein and so reports cell mass.

The test system of data set [2] is Bel-7402 human liver cancer. The data set can be described thus: Inhibition of tumor cell proliferation at 10 μM, Model C: SRB method. Type of data set: cell-based. To be noted: Bel-7402, SRB method, read-out: Model C Inhibitory rate (%).
Description: as §1

The test system of data set [3] is KB human nasopharyngeal cancer. As to the kind of experiment: Inhibition of tumor cell proliferation at 10 μM, Model D: SRB method. To be noted: read-out: Model D Inhibitory rate (%). Type of data set: cell-based.
Description: as §1

In data set [4] the test system is HCT 116 (cell line of low-expression of both EGFR and erbB2). As to the kind of experiment: MTT assay on control cell line with low EGFR and erbB2 expression (72 h). Format: cell-based. To be noted: Homo sapiens, read-out: HCT 116 (μM), EC50. The method, then:
(§2) Experimental operations: Human breast cancer SK-BR-3, MDA-MB-468 cells and human colon cancer HCT 116 cells were cultured in vitro. The cells were collected after growth to logarithmic phase, and centrifugated at 1000 rpm for 5 min. The supernatant was discarded, and the cells were suspended with an appropriate amount of medium. The cell concentration was adjusted to 3.5×10^3/mL. Then the cells were seeded into 96-well culture plates in 100 μL per well, and placed in an incubator (37° C., 5% CO2) to be incubated for 24 h. The testing drugs were added, and the negative control group was added DMSO with the final concentration of 5%. Each group has three parallel wells. After being incubated in the incubator for 72 h, 20 μL of 5 mg/mL MTT was added into each well, and the plate was placed at 37° C. for 4 h. 200 μL of DMSO was added into each well, and then the plate was oscillated in an oscillator for 30 min. […] The EC50 values were calculated by using Prism Graphpad statistical software.

For data set [5], the system named is MDA-MB-468 (cell line of EGFR over-expression). The data set can be described thus: MTT assay on EGFR over-expressing cell line (72 h). Format: cell-based. To be noted: Homo sapiens, read-out: MDA-MB-468 (μM), EC50. On the procedure: as §2
Background: Formazan colour is commonly taken as a measure of viable cells.

Data set [6] deals with human leukaemia HL-60 cells. As to the kind of experiment: EC50 on proliferation of HL-60 cells (MTT, 48 h). Type of data set: cell-based. To be noted: read-out: HL-60 EC50 (nmol). On the procedure: (§3) EC50 values of the compounds according to the present invention on the proliferation of human leukaemia HL-60 cells and Bel-7402 cells were determined by using the following method, and the results are shown in Table 2.
Testing method for EC50 values on the human leukaemia HL-60 cells: The human leukaemia HL-60 cells were cultured in vitro. The cells were collected after growth to logarithmic phase, and centrifugated at 1000 rpm for 5 min. The supernatant was discarded and the cells were suspended in an appropriate amount of medium. The cell concentration was adjusted to 1.2×10^4/mL. The cells were seeded into 96-well culture plates in 90 μL per well. For each well of the drug treatment groups, 10 μL of medium-diluted drug was added, whereas for the blank control groups, the same amount of medium was added. Every testing drug was set up for three parallel wells, and also three control wells with only testing drugs (without cell) were set up. Negative control groups were medium containing 0.5% DMSO. After the plate was incubated in an incubator for 48 h, 10 μL of 5 mg/mL MTT was added into each well, and then the plate was placed for 3 h at 37° C. 100 μL of ternary solution (5% SDS, 10 mM HCl, 5% isopropanol) was added into each well, and the plate was kept at 37° C. overnight. The absorbance (OD) was measured at 595 nm/620 nm. The EC50 values were calculated by using Prism Graphpad statistical software.

Data set [7] relates to SK-BR-3 (cell line of erbB2 over-expression). As to the kind of experiment: MTT assay on erbB2 over-expressing cell line (72 h). Format: cell-based. To be noted: Homo sapiens, read-out: SK-BR-3 (μM), EC50. The method, then:
as §2

In the next data set the test system is Bel-7402 cells. As to the kind of experiment: EC50 on proliferation of Bel7402 cells (SRB, 48 h). Format: cell-based. To be noted: Homo sapiens, read-out: Bel7402 EC50 (nmol). On the procedure:
as §3
Testing method for ED50 values on the human Be17402ce11: After the cells were incubated with the addition of the drugs for 48 h, the plates were taken out. 50 μL of pre-cooled 500 g/L trichloroacetic acid was added into each well. The plates were kept in 4° C. refrigerator for 1 h after standing for 5 min, taken out, washed with deionized water for 5 times, and dried in the air. After the plates were completely dried, 100 μL of 0.4% SRB (formulated in 1% acetic acid) was added into each well. Following staining for 20 min, the staining solution was discarded, and the residue was washed with 1% acetic acid for 5 times to remove the uncombined dye. After being dried in the air, the residue was dissolved in 150 μL of 10 mmol/L unbuffered
Tris basic solution (pH=10.5), and oscillated in an oscillator for 5 min. The absorbance of each well at 490 nm was measured with TECAN enzyme mark instrument. The cells in background control plates were treated in the same way for measuring OD490. The EC50 values were calculated by using Prism Graphpad statistical software.

Compound `OC1CCSC(=S)N1Cc1ccco1` (stereo not drawn) [Compound 1, 3-(furan-2-ylmethyl)-4-hydroxy-1,3-thiazinane-2-thione] showed a melting point of 42 to 43 °C. Also, in the data set on HL-60 human leukaemia, the inhibition at 10 µM was 28.4%. The inhibition at 10 µM in data set [1] is 20%. The inhibition at 10 µM in data set [2] is 43.1%. Also, the inhibition at 10 µM in data set [3] was found to be 20.1%.
For `COC(=O)CCSC(=S)NCc1ccco1` [Compound 2, 2-(methoxycarbonyl)ethyl(furan-2-ylmethyl)dithiocarbamate] the same measures were 50 to 52 °C, 19.3%, 16.4%, -1.69% and 3.8%.
The matching figures for `CC1=CSC(=S)N(Cc2ccco2)C1(C)O` (stereo not drawn) [Compound 4, 3-(furan-2-ylmethyl)-4-hydroxy-4,5-dimethyl-3,4-dihydro-2H-1,3-thiazine-2-thione]: 88 to 89 °C, 23.7%, 15.2%, 2.91% and 5.76%.
With `OB(O)CCSC(=S)NCc1ccco1` [Compound 6, 2-boronoethyl(furan-2-ylmethyl)dithiocarbamate], the inhibition at 10 µM in the data set on HL-60 human leukaemia was determined as 0.06%; in [1], 14.5%; in [2], 2.9%; in [3], 1.68%.
Compound `C[S+]([O-])CCSC(=S)NCc1ccco1` (stereo not drawn) [Compound 7, 2-(methylsulfinyl)ethyl(furan-2-ylmethyl)dithiocarbamate] registered a melting point of 43 to 45 °C. For the same compound, in the data set with HL-60 human leukaemia, the inhibition at 10 µM came out at 11.2%. The inhibition at 10 µM in data set [1] was determined as 16%. The inhibition at 10 µM in [2] was -8.68%. The inhibition at 10 µM in data set [3] amounted to 4.07%.
`[O-][S+](CCSC(=S)NCc1ccco1)Cc1ccccc1` (stereo not drawn) [Compound 8, 2-(benzylsulfinyl)ethyl(furan-2-ylmethyl)dithiocarbamate]: the melting point fell in the range of 51 to 52 °C. Moreover, the inhibition at 10 µM in the data set with HL-60 human leukaemia turned out to be 20.9%. Further, the inhibition at 10 µM in data set [1] is 12.3%. Also, the inhibition at 10 µM in data set [2] came out at 56.9%. Besides, the inhibition at 10 µM in [3] stood at 10.5%.
The matching figures for `OC1CCSC(=S)N1Cc1cccnc1` (stereo not drawn) [Compound 9, 4-hydroxy-3-(pyridin-3-ylmethyl)-1,3-thiazinane-2-thione]: 56 to 57 °C, 38.9%, 20.3%, 79.5% and 61.3%.
Regarding `COC(=O)CCSC(=S)NCc1cccnc1` [Compound 10, 2-(methoxycarbonyl)ethyl(pyridin-3-ylmethyl)dithiocarbamate], the inhibition at 10 µM is 61.9% in the data set with HL-60 human leukaemia, 72% in data set [1], 87.5% in data set [2] and 91.5% in data set [3].
On to `N#CCCSC(=S)NCc1cccnc1` [Compound 11, 2-cyanoethyl(pyridin-3-ylmethyl)dithiocarbamate], for which the melting point fell in the range of 58 to 60 °C. Further, the inhibition at 10 µM with HL-60 human leukaemia amounted to 72.3%. Also, the inhibition at 10 µM in [1] came to 60.4%. In [2], the inhibition at 10 µM was found to be 86.1%. In [3], the inhibition at 10 µM worked out at 93.7%. In addition, the EC50 in data set [4] (HCT 116 cells, MTT, 72 h) was found to be 10.4 µM. In [5] (MDA-MB-468 cells, MTT, 72 h), the 50% effective concentration (EC50) came to 9.54 µM. Further, the pEC50 in [6] was 8.84. The EC50 in [7] (SK-BR-3 cells, MTT, 72 h) worked out at 2.84 µM. Also, in the data set with Bel-7402 cells, the pEC50 is 7.56.
Take `CC1=CSC(=S)N(Cc2cccnc2)C1(C)O` (stereo not drawn) [Compound 12, 4-hydroxy-4,5-dimethyl-3-(pyridin-3-ylmethyl)-3,4-dihydro-2H-1,3-thiazine-2-thione]: the melting point was in the range of 71 to 72 °C. For the same compound, the inhibition at 10 µM with HL-60 human leukaemia amounted to 79.9%. Also, the inhibition at 10 µM in data set [1] came to 43.9%. In addition, the inhibition at 10 µM in data set [2] is 8.66%. For the same compound, in [3], the inhibition at 10 µM was 15.2%.
On to `NS(=O)(=O)CCSC(=S)NCc1cccnc1` [Compound 13, 2-sulfamoylethyl(pyridin-3-ylmethyl)dithiocarbamate], for which the inhibition at 10 µM in the data set on HL-60 human leukaemia is -4.25%; in data set [1] it was 18.4%; in [2] it was 5.87%; in data set [3], 17.6%.
In turn, `OB(O)CCSC(=S)NCc1cccnc1` [Compound 14, 2-boronoethyl(pyridin-3-ylmethyl)dithiocarbamate] gave a melting point of 49 to 50 °C. In addition, in the data set with HL-60 human leukaemia, the inhibition at 10 µM turned out to be 41.4%. The inhibition at 10 µM in data set [1] was found to be 68.6%. Besides, the inhibition at 10 µM in data set [2] was found to be 91%. Further, the inhibition at 10 µM in data set [3] worked out at 94.5%.
For `C[S+]([O-])CCSC(=S)NCc1cccnc1` (stereo not drawn) [Compound 15, 2-(methylsulfinyl)ethyl(pyridin-3-ylmethyl)dithiocarbamate], the inhibition at 10 µM in the data set with HL-60 human leukaemia was 26.1%; in data set [1] it was 9.95%; in data set [2], -2.37%; in [3] it was 3.58%.
`[O-][S+](CCSC(=S)NCc1cccnc1)Cc1ccccc1` (stereo not drawn) [Compound 16, 2-(benzylsulfinyl)ethyl(pyridin-3-ylmethyl)dithiocarbamate]: the inhibition at 10 µM worked out at 26.1% in the data set with HL-60 human leukaemia, 72.3% in data set [1], 96.1% in data set [2] and 93.1% in [3]. The EC50 is 16.2 µM in data set [4] (HCT 116 cells, MTT, 72 h); 0.953 µM in [5] (MDA-MB-468 cells, MTT, 72 h); 0.655 µM in data set [7] (SK-BR-3 cells, MTT, 72 h).
Consider `CCCCOC(=O)CCSC(=S)NCc1cccnc1` [Compound 47, 2-(butoxycarbonyl)ethyl (pyridin-3-ylmethyl)dithiocarbamate], for which the EC50 was found to be 7.83 µM in data set [4] (HCT 116 cells, MTT, 72 h); 12.8 µM in [5] (MDA-MB-468 cells, MTT, 72 h); 4.46 µM in [7] (SK-BR-3 cells, MTT, 72 h). Moreover, the pEC50 is 7.59 in [6] and 8.20 in the data set on Bel-7402 cells.
With `CS(=O)(=O)CCNCc1ccc(-c2ccc3ncnc(Nc4ccc(OCc5cccc(F)c5)c(Cl)c4)c3c2)o1` [Lapatinib, reference compound], the EC50 in [4] (HCT-116, 72 h) stood at 42.4 µM; in [5] (MDA-MB-468, 72 h) it was 19.6 µM; in [7] (SK-BR-3, 72 h) it was 4.35 µM.

Usually melting point stands for the temperature of the solid-liquid transition. A word on the EC50: it is the concentration that produces a half-maximal response. Broadly, the pEC50 is the EC50 on a negative log10 scale, so that one unit is a factor of ten.

Source of the values: US20130136794A1, “HETEROARYL (ALKYL) DITHIOCARBAMATE COMPOUNDS, PREPARATION METHODS AND USES THEREOF” (PEKING UNIVERSITY, priority 2010, published 2013).
